Reference: US10961551B2, “Process for producing at least one metabolite of interest by conversion of a pentose in a microorganism” (INSTITUT NATIONAL DE LA RECHERCHE AGRONOMIQUE—INRA, priority 2014, dated 2021)
Like-named read-outs stand apart in the source and are kept apart here.

Tests used:
[1] = target: T1, Fructose-16bP aldolase Aldo-B (aldolase B), H. sapiens, SEQ ID NO:2 (Homo sapiens, UniProt P05062); assay: Kinetic parameters of candidate aldolase by coupled NADH consumption assay; assay type: biochemical; settings: Hepes buffer pH 7, NADH consumption at 340 nm
T1 sequence (P05062 1-364): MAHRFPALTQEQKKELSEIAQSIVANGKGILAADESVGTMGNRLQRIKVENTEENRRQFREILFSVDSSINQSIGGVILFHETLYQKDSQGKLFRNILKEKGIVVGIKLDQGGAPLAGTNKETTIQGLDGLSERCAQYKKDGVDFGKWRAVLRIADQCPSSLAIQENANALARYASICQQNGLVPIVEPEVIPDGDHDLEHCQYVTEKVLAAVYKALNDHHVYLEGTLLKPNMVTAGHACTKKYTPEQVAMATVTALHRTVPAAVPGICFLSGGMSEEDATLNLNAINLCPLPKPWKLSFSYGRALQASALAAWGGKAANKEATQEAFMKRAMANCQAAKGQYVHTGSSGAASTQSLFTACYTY
Protocol: (§1) The cloning of the candidate aldolases was done by amplifying aldoB, fbaB and agaY by PCR (using, respectively, the primer pairs P5/P6, P7/P8 and P11/P12 listed in table 3). This amplification was performed from the plasmid peX-A-aldoB carrying aldoB with codon optimization (Eurofins) or from the E. coli genomic DNA for fbaB and agaY, respectively. The fragments were then cloned in pGEM (Invitrogen). […] The ligation product is transformed in the E. coli strain BL21(DE3).

[2] = target: T2, Fructose-16bP aldolase FbaB (fructose-1,6 bisphosphate aldolase B), E. coli, SEQ ID NO:9 (Escherichia coli, UniProt P0A991); assay: as above; assay type: biochemical; settings: Hepes buffer pH 7, NADH consumption at 340 nm
T2 sequence (P0A991 1-350): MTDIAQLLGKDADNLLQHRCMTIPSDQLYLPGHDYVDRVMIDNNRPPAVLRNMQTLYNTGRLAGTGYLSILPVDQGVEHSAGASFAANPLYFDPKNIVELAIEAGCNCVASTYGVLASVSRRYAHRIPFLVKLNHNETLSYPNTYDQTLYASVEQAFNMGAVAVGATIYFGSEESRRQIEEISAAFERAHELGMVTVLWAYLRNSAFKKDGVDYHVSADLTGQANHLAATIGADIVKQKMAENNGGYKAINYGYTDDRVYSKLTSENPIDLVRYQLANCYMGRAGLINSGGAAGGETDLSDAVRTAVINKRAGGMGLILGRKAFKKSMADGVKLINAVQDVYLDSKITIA
Protocol: as §1

[3] = target: (L)-rhamnulose kinase RhaB, E. coli, SEQ ID NO:6 (Escherichia coli, UniProt P32171); assay: Kinetic parameters of candidate kinase by pyruvate kinase/lactate dehydrogenase coupling reaction; assay type: biochemical; settings: Table 1A; 4 mM ATP, Hepes buffer pH 7, NADH at 340 nm
[4] = target: T3, L-fuculokinase FucK (fuculose kinase), E. coli, SEQ ID NO:5 (Escherichia coli, UniProt P11553); assay: as above; assay type: biochemical; settings: Table 1A; 4 mM ATP, Hepes buffer pH 7, NADH at 340 nm
T3 sequence (P11553 1-472): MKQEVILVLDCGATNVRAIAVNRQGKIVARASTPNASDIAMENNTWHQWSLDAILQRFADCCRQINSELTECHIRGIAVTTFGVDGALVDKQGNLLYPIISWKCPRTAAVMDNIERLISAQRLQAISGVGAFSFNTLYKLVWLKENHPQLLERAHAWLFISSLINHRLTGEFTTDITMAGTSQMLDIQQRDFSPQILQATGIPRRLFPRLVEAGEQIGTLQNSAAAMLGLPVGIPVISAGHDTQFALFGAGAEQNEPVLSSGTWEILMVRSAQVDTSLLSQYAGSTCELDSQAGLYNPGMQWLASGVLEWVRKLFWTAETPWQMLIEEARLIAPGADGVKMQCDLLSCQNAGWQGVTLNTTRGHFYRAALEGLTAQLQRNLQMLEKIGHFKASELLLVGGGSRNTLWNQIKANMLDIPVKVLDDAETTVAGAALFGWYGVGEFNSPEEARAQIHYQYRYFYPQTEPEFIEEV

[5] = target: T4, Ketohexokinase Khk-C (ketohexokinase C), H. sapiens, SEQ ID NO:1 (Homo sapiens, UniProt P50053); settings: 4 mM ATP, Hepes buffer pH 7, NADH at 340 nm
T4 sequence (P50053 1-298): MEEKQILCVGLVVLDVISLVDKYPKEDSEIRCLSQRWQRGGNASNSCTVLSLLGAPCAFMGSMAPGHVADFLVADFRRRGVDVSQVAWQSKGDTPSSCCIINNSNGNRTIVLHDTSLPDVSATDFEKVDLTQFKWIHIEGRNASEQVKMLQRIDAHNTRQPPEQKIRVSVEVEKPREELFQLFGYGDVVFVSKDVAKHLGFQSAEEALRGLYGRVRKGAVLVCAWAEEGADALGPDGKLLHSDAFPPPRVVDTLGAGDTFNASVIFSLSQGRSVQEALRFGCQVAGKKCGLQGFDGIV

[6] = Kinase kinetic parameters on (D)-xylulose (pyruvate kinase/lactate dehydrogenase coupling reaction); assay type: biochemical
[7] = Kinase kinetic parameters on (L)-ribulose (pyruvate kinase/lactate dehydrogenase coupling reaction); assay type: biochemical
Excerpt: The same approach was used to characterize these parameters on (L)-ribulose: […]

[8] = Aldolase kinetic parameters on (D)-xylulose-1-phosphate (NADH-coupled assay); assay type: biochemical
[9] = Aldolase kinetic parameters on (L)-ribulose-1-phosphate (NADH-coupled assay); assay type: biochemical
Excerpt: (L)-ribulose-1 kinase: (L)-ribulose+ATP→(L)-ribulose-1P+ADP (L)-ribulose-1P aldolase: (L)-ribulose-1P→DHAP+glycolaldehyde Glycerol-3P dehydrogenase: DHAP+NADH→Glycerol-3P+NAD

[10] = substrate: O=P(O)(O)OC[C@H]1OC(O)(COP(=O)(O)O)[C@@H](O)[C@@H]1O; assay: purified protein, by the assay type; settings: other: Hepes buffer pH 7, NADH consumption at 340 nm, 37.0 °C
[11] = substrate: C[C@H](O)[C@@H](O)[C@@H](O)C(=O)CO; assay: Kinetic parameters of candidate kinase by pyruvate kinase/lactate dehydrogenase coupling reaction; assay type: biochemical, E. coli; settings: other: Table 1A, 4 mM ATP, Hepes buffer pH 7, NADH at 340 nm, 37.0 °C

Sequence of (L)-rhamnulose kinase RhaB, E. coli, SEQ ID NO:6 (P32171 whole entry): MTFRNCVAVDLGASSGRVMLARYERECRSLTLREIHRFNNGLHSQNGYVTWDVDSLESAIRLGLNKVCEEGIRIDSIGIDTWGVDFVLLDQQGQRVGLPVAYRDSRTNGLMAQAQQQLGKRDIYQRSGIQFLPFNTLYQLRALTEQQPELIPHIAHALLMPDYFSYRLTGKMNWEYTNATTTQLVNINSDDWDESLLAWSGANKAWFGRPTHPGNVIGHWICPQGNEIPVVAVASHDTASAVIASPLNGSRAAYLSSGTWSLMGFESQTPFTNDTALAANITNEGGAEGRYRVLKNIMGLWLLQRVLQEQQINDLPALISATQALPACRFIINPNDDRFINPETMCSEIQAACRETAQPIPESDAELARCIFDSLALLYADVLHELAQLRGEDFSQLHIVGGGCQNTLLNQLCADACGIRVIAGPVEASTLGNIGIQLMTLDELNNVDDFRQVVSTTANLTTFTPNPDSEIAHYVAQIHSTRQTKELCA

In the case of `O=C(COP(=O)(O)O)[C@@H](O)[C@H](O)CO` [(D)-Xylulose-1P, (D)-xylulose-1-phosphate], the Vmax [1] is reported as 0.81 ± 0.2 U/mg and the Vmax [2] is reported as 0.18 ± 0.04 U/mg.

In the case of `O=C(CO)[C@@H](O)[C@H](O)CO` [(D)-xylulose], the Km [3] is reported as “ns”, the Vmax [3] is reported as 18.7 U/mg and the Km [4] is reported as “ns”. The Vmax [4] was 0.1 U/mg, the Km ([5]; Table 1A) was 600 µM and the Vmax ([5]; Table 1A) was 3.1 U/mg.

Work on `O=C(COP(=O)(O)O)[C@@H](O)[C@@H](O)CO` [(L)-Ribulose-1P, (L)-ribulose-1-phosphate] yielded a Vmax [1] of 0.00 U/mg and a Vmax [2] of 0.06 ± 0.01 U/mg.

With `O=C(CO)[C@@H](O)[C@@H](O)CO` [(L)-ribulose] the Km ([5]; Table 1B) was 550 µM and the Vmax ([5]; Table 1B) was 3.5 U/mg.

With `OCC1(O)OC[C@@H](O)[C@@H](O)[C@@H]1O` (stereo partly drawn) [fructose] the Km ([5]; Table 1A) was 720 µM, the Vmax ([5]; Table 1A) was 6 U/mg and the Km ([5]; Table 1B) was 310 ± 100 µM. It also gave a Vmax ([5]; Table 1B) of 6.59 ± 1.4 U/mg.

In the case of “Khk-C: isoform C of ketohexokinase of H. sapiens, encoded by khkC gene SEQ ID NO:1, expressed from pET28a and purified”, the “functional on (D)-xylulose” value [6] is reported as “functional” and the “functional on (L)-ribulose” value [7] is reported as “functional”.

B1: Fructose-16bP aldolase FbaB (fructose-1,6 bisphosphate aldolase B), E. coli, SEQ ID NO:9 (Escherichia coli K-12) (protein)
chain: T2 sequence (P0A991 1-350)
For B1, the “activity on (D)-xylulose-1P” value [8] was “has an activity”, the “activity on (L)-ribulose-1P” value [9] was “has an activity” and the Km [10] was 330 ± 70 µM. For the same molecule, the Vmax [10] was 0.52 ± 0.1 U/mg.

B2: Fructose-16bP aldolase Aldo-B (aldolase B), H. sapiens, SEQ ID NO:2 (Homo sapiens) (protein)
chain: T1 sequence (P05062 1-364)
For B2, the “activity on (D)-xylulose-1P” value [8] was “has an activity”, the Km [10] was 30 ± 10 µM and the Vmax [10] was 0.46 ± 0.05 U/mg.

B3: L-fuculokinase FucK (fuculose kinase), E. coli, SEQ ID NO:5 (Escherichia coli K-12) (protein)
chain: T3 sequence (P11553 1-472)
Work on B3 yielded a Km [11] of 60 µM and a Vmax [11] of 20 U/mg.
